The source of these data is patent publication US20120172344A1, “INSULIN-PRODUCING CELL INDUCER, GLUCOSE INTAKE ENHANCER, AND THERAPEUTIC AGENT FOR DIABETES OR DIABETES COMPLICATIONS” (KYUSHU UNIVERSITY, NATIONAL UNIVERSITY CORPORATION, priority 2009, published 2012).

In the experiment the test system is muscles (soleus muscle) of Tg23 mice. The experiment is described as follows: Experimental Example 3: glucose (2-deoxy-D-glucose) intake of soleus muscles. In kind it is in vivo, mouse. The settings on record: isolated soleus muscles of WT and Tg mice incubated in KRB buffer with vs without insulin, 10 minutes at 30° C.

Experimental: Mice were sacrificed, and extensor digitorum longus (EDL) muscles and soleus muscles were quickly removed and processed. Both ends of each of the muscles were tied with suture (silk 4-0), and mounted on an incubation apparatus. First, the muscles were preincubated for 20 minutes in 6 ml of Krebs-Ringer bicarbonate (KRB) buffer (117 mM NaCl, 4.7 mM KCl, 2.5 mM CaCl2, 1.2 mM KH2PO4, 1.2 mM MgSO4, 24.6 mM NaHCO3, pH 7.5) containing 2 mM pyruvate. Then, the muscles were incubated in KRB buffer in presence or absence of insulin.
Immediately after muscle incubation, the muscles were transferred to KRB buffer containing 1 mM 2-deoxy-D-[^3H]glucose (1.5 μCi/ml) and 7 mM D-[^14C]mannitol (0.3 μCi/ml) (PerkinElmer Life Sciences) at 30° C., and incubated again for 10 minutes. When using insulin, a buffer containing insulin was used for incubation in a similar manner.
Glucose transport was terminated by dipping the muscles in KRB buffer containing 80 μmol/L cytochalasin B at 4° C., and then the muscles were frozen in liquid nitrogen. The muscles were weighed, and digested by incubating in 250 μl of 1 M NaOH at 80° C. for 10 minutes. Digests were neutralized with 250 μl of 1 M HCl. […] Radioactivity in aliquots of the digested muscle was determined by liquid scintillation counting for dual labels, and extracellular and intracellular spaces were calculated. […]

Turning to insulin, the “amount of glucose intake of muscles in presence (+) of insulin” value is on record as “increased”.
